We go through three compounds from PMC11087509, “Multimodal binding and inhibition of bacterial ribosomes by the antimicrobial peptides Api137 and Api88” (Nature Communications, 2024).

“Also recorded” adds a separate entry of the source. Where a SMILES comes first, the peptide text is derived from it. The star is where a group is joined. Orn(α-tetramethylguanidino) = CN(C)C(=N[C@@H](CCCN)C(=O)*)N(C)C

For experiment [1], the target named is T1, purified 70S ribosome (Escherichia coli, UniProt P0A7M6+P0ADZ0+P60723+P61175).
T1 construct: obtain highly pure E. coli 70S ribosomes; made in house; host or cells: E. coli BW25113 (native ribosomes isolated, not recombinant)
In words: Fluorescence polarization binding, purified 70S ribosome. More on the design: species or system E. coli. As for the experimental part: (§1) E. coli BW25113 were grown in LB medium and harvested by centrifugation (5000× g, 15 min, 4 °C) at an OD600 of 3-4. Cell pellets were washed in ribosome preparation buffer (20 mmol/L HEPES-KOH, 6 mmol/L MgCl2, 30 mmol/L NH4Cl, pH 7.6, 4 °C), centrifuged (4100× g, 30 min, 4 °C), and suspended in ribosome preparation buffer ([…]) containing freshly added ß-mercaptoethanol (4 mmol/L). Lysozyme was added to the resuspended cells and incubated for 30 min on ice. Cells were disrupted in six cycles using a FastPrep-24^TM 5 G instrument (MP Biomedicals, Eschwege, Germany) with the BigPrep 50 mL setting (40 s, 4.0 m/s) and one-minute incubation on ice between cycles. […]
(§2) Ribosomes were purified by anion exchange chromatography using an Äkta Pure System (GE Healthcare, Freiburg, Germany) and a CIM®QA column (8 mL, 2 µm channels; Sartorius Stedim Biotech GmbH, Göttingen, Germany). […] The ribosome concentration was estimated by recording the absorbance at 260 nm (considering that 15 AU corresponds to a ribosome concentration of 1 g/L). […]
Dissociation constants (Kd) were determined using purified 70S ribosome, 50S or 30S subunit and cf-labeled peptides in ribosome preparation buffer. […] Fluorescence polarization was measured on a […]^TM microplate reader (Beckman Coulter, Krefeld, Germany) in the top reading position (λexc = 485 nm, λem = 535 nm). […]

Experiment [2] concerns the target T2, 50S subunit (Escherichia coli, UniProt P0A7M6+P0ADZ0+P60723+P61175).
T2 construct: Ribosomes were isolated from the E. coli strain MRE600; made in house; native subunits isolated in house
In words: Fluorescence polarization binding, 50S subunit. On the set-up: species or system E. coli. As for the experimental part:
Several hundred grams of log-phase cells were commercially produced and purchased. Cells were washed in buffer A (20 mmol/L HEPES (pH 7.6), 6 mmol/L MgAc2, 30 mmol/L AcOK, 4 mmol/L ß-mercaptoethanol) and lysed in an M-110L microfluidizer (Microfluidics) at 17,000 psi and 4 °C. Cell debris was removed by low-speed centrifugation (15,000× g, 10 min, 4 °C) to obtain S30 lysate. Crude ribosomes, mostly containing 70S ribosomes, were pelleted by ultracentrifugation (40,000× g, 17 h, 4 °C) and resuspended in buffer A. The 70S ribosomes were separated from 30S and 50S subunits by zonal ultracentrifugation (Beckman Ti-15; 6–40% sucrose gradient in buffer A, 44,000× g, 16 h, 4 °C). The 70S-containing fractions were collected, and the ribosomes were sedimented by ultracentrifugation (40,000× g, 17 h, 4 °C). Since these 70S ribosomes still contained tRNAs and mRNA, they were resuspended in buffer B (20 mmol/L HEPES (pH 7.6), 1 mmol/L MgAc2, 0.2 mol/L NH4Ac, 4 mmol/L ß-mercaptoethanol), which allows for dissociation into 30S and 50S subunits, and subjected to a second zonal centrifugation (Beckman Ti-15, 44,000× g, 16 h, 4 °C), but this time in a 6–40% sucrose gradient prepared in buffer B. Fractions containing 30S and 50S subunits were collected, sedimented by ultracentrifugation (40,000× g, 17 h, 4 °C), resuspended in buffer A, aliquoted, shock-frozen in liquid nitrogen, and stored at −80 °C.
Dissociation constants (Kd) were determined using purified 70S ribosome, 50S or 30S subunit and cf-labeled peptides in ribosome preparation buffer. Briefly, black 384-well plates (flat bottom, 781209, Greiner Bio-One GmbH) were blocked with casein (0.5%, w/v) in PBS containing 0.05% (v/v) Tween 20 at 4 °C overnight and washed three times with phosphate buffer. A 2-fold dilution series (22 steps) of pure 70S ribosome, 50S or 30S subunit (10 μL per well) in ribosome preparation buffer was prepared in a black 384-well plate. The cf-labeled peptide was dissolved in ribosome preparation buffer (10 μL, 40 nmol/L), added to each well, centrifuged (500 x g, 2 min), and incubated at 28 ± 1 °C for 90 min. Fluorescence polarization was measured on a […]^TM microplate reader (Beckman Coulter, Krefeld, Germany) in the top reading position (λexc = 485 nm, λem = 535 nm). Data were fitted to a nonlinear dose-response logistic transition equation [y = y0 + a/(1 + (x/x0)b)] using the Levenberg-Marquardt algorithm, with Kd represented by the x0 coefficients (GraphPad Prism for Windows v. 10.1.2, San Diego, CA, USA).
A general note: Polarisation of emitted light reports the rotation of a fluorescent probe.

Experiment [3] has as its target DnaK. To be noted: read-out: Kd (DnaK); peer review response; cited from earlier work. From the text: We now introduce trigger factor in line 446 as “…molecular chaperone…” In addition, we hypothesize that Api88 binds to the ribosome within the contact area of TF, which interacts with uL23 and uL29, two proteins we report here as cross-linked to Api88.
The target in experiment [4] is recombinant TF. The note with it: fluorescence polarization; cited from earlier work. From the text:
Binding sites two and three are close to uL23 and uL29, which is also supported by Api88(Y7B) cross-links. These ribosomal proteins are located adjacent to the PET exit and are binding hubs for the molecular chaperone trigger factor (TF)[34] and the signal recognition particle (SRP), a universally conserved and essential cellular machinery that directs proteins destined for membrane integration to the plasma membrane[35],[36]. This co-translational targeting is initiated by a hydrophobic signal sequence in the nascent protein chain recognized by SRP as it exits the PET. It is appealing to hypo ...

Experiment [5] has as its target T1, purified 70S ribosome. Kind of experiment: Fluorescence polarization competition with cf-Api88 on purified 70S ribosome. The note with it: competition with cf-Api88, pure 70S ribosome; 28 °C. It is filed as binding, E. coli. Here is the method: as §1, §2
Inhibition constants (Ki) were determined for the pure 70S ribosome using cf-labeled and unlabeled peptides in the ribosome preparation buffer. […] Fluorescence polarization was measured on a […]^TM microplate reader in the top reading position (λexc = 485 nm, λem = 535 nm). […] The Ki values were calculated as described by Mathias and Jung[39].

For `CC[C@H](C)[C@H](NC(=O)[C@H](Cc1ccc(O)cc1)NC(=O)[C@@H](NC(=O)[C@@H]1CCCN1C(=O)[C@H](CCCNC(=N)N)NC(=O)[C@H](CC(N)=O)NC(=O)[C@H](CC(N)=O)NC(=O)[C@H](CCCN)N=C(N(C)C)N(C)C)C(C)C)C(=O)N1CCC[C@H]1C(=O)N[C@@H](CCCNC(=N)N)C(=O)N1CCC[C@H]1C(=O)N[C@@H](CCCNC(=N)N)C(=O)N1CCC[C@H]1C(=O)N1CCC[C@H]1C(=O)N[C@@H](Cc1c[nH]cn1)C(=O)N1CCC[C@H]1C(=O)N[C@@H](CCCNC(=N)N)C(=O)N[C@@H](CC(C)C)C(N)=O` [Api88] ({Orn(α-tetramethylguanidino)}-NNRPVYIPRPRPPHPRL-NH2), the Kd stood at 1820 ± 80 nM in experiment [1] (apparent Kd, cf-labeled PrAMP (10 μL, 40 nmol/L), ribosome preparation buffer (20 mmol/L HEPES-KOH, 6 mmol/L MgCl2, 30 mmol/L NH4Cl, pH 7.6), 28 °C, 90 min, mean of triplicates, read-out: Kd 70S ribosome pure) and 580 ± 50 nM in experiment [2] (apparent Kd, cf-labeled PrAMP (10 μL, 40 nmol/L), ribosome preparation buffer pH 7.6, 28 °C, 90 min, mean of triplicates). Also, the “higher affinity of Api88 than Api137” value in experiment [1] (purified 70S ribosomes and 50S subunits) is 2-3 fold. In addition, the “Kd for 50S subunit lower than for 70S ribosome” value in experiment [2] (ratio 70S / 50S, cf-labeled) is reported as “threefold”.
For “GNNRPVYIPQPRPPHPRL [apidaecin 1b, reference compound]”, the results for the Kd in experiment [3] and in experiment [4] were ~5000 nM and > 100000 nM, respectively.
Take `CC[C@H]1OC(=O)[C@H](C)[C@@H](O[C@H]2C[C@@](C)(OC)[C@@H](O)[C@H](C)O2)[C@H](C)[C@@H](O[C@@H]2O[C@H](C)C[C@H](N(C)C)[C@H]2O)[C@](C)(O)C[C@@H](C)C(=O)[C@H](C)[C@@H](O)[C@]1(C)O` [erythromycin]: in experiment [5], the “displacement of cf-Api88 / decrease in fluorescence polarization” value is “significantly competing with the binding of cf-Api88; also recorded: reduced the fluorescence polarization to a much lesser extent”.
